From patent US8835471B2, “Use of angiotensin II agonists” (Vicore Pharma AB, priority 2010, dated 2014)

Experiments:
[1] = system: Balb/C mice with spinal cord contusion lesion; experiment: Spinal cord contusion injury, locomotor recovery scored with the Basso Mouse Scale (BMS); type: in vivo
Source text: In studies of spinal cord injury in mice, the recovery of the mice in the studies may be monitored and quantified using the Basso Mouse Scale (Basso D. M., et al., Journal of Neurotrauma, Volume 23, No. 5, 635-659 (2006), the entirety of which is hereby incorporated by reference). Using this method, each mouse in such studies may be awarded a score based on the criteria outlined in Table 1 and FIG. 1 of Basso et al., supra,
Spinal cord injury and cortical spinal tract (CST) tracing were performed as described in (Boato et al. 2010). […] A gelfoam patch containing 1 μM the compound of Example 1(i) was then placed on top of the perforated dura (only in the second experiment, see Example 3), the muscles were sutured and the back skin closed with wound clips. Recovery of function after SCI was determined by scoring the locomotor hindlimb performance in the open field with the BMS, a 0-9 rating system based on the BBB scale and specifically designed for the mouse (Basso D. M., et al., Journal of Neurotrauma, Volume 23, No. 5, 635-659 (2006)). Under blind conditions, investigator evaluated the mice over a 4-min time period daily. Before surgery, animals were acclimated to the open field and to handling to prevent fear and/or stress behaviours that could bias the locomotor assessment.

[2] = system: CST nerve fibres of mice with spinal cord injury; experiment: Cortical spinal tract tracing (BDA-labelled nerve fibres) after spinal cord injury; type: in vivo, mouse; conditions: FIG. 4
Method: To anterogradely label the CST, 2 μl of biotinylated dextran amine (10% BDA) were then injected into the motor cortex. BDA-positive CST nerve fibres were visualized by 3,3′-diaminobenzidine staining and counted cranial and caudal to the lesion in serial sections and normalized to the number of labelled fibres in the dorsoventral diameter of the CST in cross sections at T4.
The bars in FIG. 2 represent the percentage of nerve fibres in the area between the end of the CST and the lesion centre (TE-LC) and in the area 0.1, 0.2 or 0.5 mm distal to the lesion centre (0.1, 0.2 or 0.5 mm from LC).
The potential for administration of the compound of Example 1(i) to mice to lead to regeneration of axonal fibres and bridging of the site of injury by reinnervation, following spinal cord injury, was examined. This involved tracking motor neurons by injection of BDA-labelled dextran into the motor cortex.

[3] = system: BDNF; experiment: BDNF mRNA expression by RT-qPCR in murine primary neurons; type: cell-based; conditions: primary mouse neurons, FIG. 5a
Method: (§1) Primary neurons were isolated from brains of E15 mouse embryos.
(§2) Total RNA from cells was extracted using NucleoSpin RNA II extraction kit including DNAse treatment to digest genomic DNA (Macherey & Nagel, Düren, Germany).
(§3) RNA concentration was measured spectrophotometrically at a wavelength of 260 nm. Purity was assessed by the quotient 260/280 nm.
(§4) 250 ng of cell-derived mRNA were reverse transcribed into complementary DNA using moloney murine leukaemia virus (M-MLV) reverse transcriptase, 5× M-MLV buffer, deoxy-NTPs, random primers and RNasin (reagents from Promega, Mannheim, Germany) at 37° C. for 60 min. In order to control for genomic DNA contaminations, RNA was additionally transcribed in the absence of M-MLV reverse transcriptase (RT minus control).
(§5) To measure gene expression, the transcribed cDNA was amplified by quantitative real-time PCR (Stratagen MX Pro, Agilent Technologies Sales & Services GmbH & Co. KG, Waldbronn, Germany) in a final volume of 25 μl with the specific primers in commercial Power SYBR Green Master Mix (Applied Biosystems, Foster City, USA). Expression values were normalized against 18SrRNA expression.
(§6) All PCR primers were purchased from Operon Biotechnologies (Köln, Germany). […]

[4] = system: TrkB; experiment: TrkB mRNA expression by RT-qPCR in murine primary neurons; type: cell-based; conditions: primary mouse neurons, FIG. 5b
Method: as §1, §2, §3, §4, §5, §6

[5] = system: BDNF; experiment: BDNF mRNA expression by RT-qPCR in murine primary astrocytes; type: cell-based; conditions: primary mouse astrocytes, FIG. 6a
Method: as §2, §3, §4, §5, §6

[6] = system: TrkB; experiment: TrkB mRNA expression by RT-qPCR in murine primary astrocytes; type: cell-based; conditions: primary mouse astrocytes, FIG. 6b
Method: as §2, §3, §4, §5, §6

[7] = system: TrkB; experiment: Immunohistochemical stainings of injured spinal cords for TrkB; type: in vivo, mouse; conditions: 4 week treatment; area of injury and peri-lesional tissue; versus vehicle; FIG. 7
Source text: Animal tissues were fixated by transcardial perfusion with normal saline followed by ice-cold 4% paraformaldehyde in 0.1 M phosphate-buffered saline. After perfusion, spinal cords were dissected and post-fixed overnight in the same fixative. The next day, the tissues were embedded in Jung-Tissue Freezing Medium (Leica Microsystems Nussloh, Germany) and cut longitudinally along the horizontal plane (40 μm thickness) into six series using a freezing microtome.
For immunostaining, samples were preincubated with 10% normal goat serum dissolved in PBS containing 0.5% Triton X-100 for 30 minutes at room temperature (RT). Incubation with primary antibody (Santa Cruz) was carried out overnight at 4° C. Following repeated washing steps with PBS, secondary antibodies (Jackson ImmunoResearch Laboratories) were applied for 2 hours at RT. After removal of unbound antibodies, sections were mounted.
For measurement of signal intensity six sections per animal containing the lesion center were analyzed. Micrographs were made in 15 rectangular boxes along the spinal cord covering the lesion and surrounding area. Using ImageJ software (NIH) pictures were converted into the 8-Bit greyscale and the signal intensity for each box was evaluated.

[8] = system: viable neurons at the site of spinal cord injury; experiment: Histochemical stainings of injured spinal cords for Nissl (viable neurons); type: in vivo, mouse; conditions: versus vehicle-treated animals; FIG. 8
Method: Animals were fixated as described above.
For staining of viable neurons the NeuroTrace® 500/525 green fluorescent Nissl stain (Invitrogen) was used. Briefly, after rehydration tissue slices were permeabilized in PBS containing 0.1% Triton X-100 for 10 minutes at room temperature. After washing NeuroTrace solution (100 fold diluted in PBS) was applied to the sections and incubated for 20 minutes at room temperature. After washing, samples were mounted for microscopy.
For measurement of signal intensity six sections per animal containing the lesion centre were analyzed. Micrographs were made in 15 rectangular boxes along the spinal cord covering the lesion and surrounding area. Using ImageJ software (NIH) pictures were converted into the 8-Bit grayscale and the signal intensity for each box was evaluated.

Compound	Basso Mouse Scale score better than vehicle treated mice ([1]; Balb/C mice, treated once daily, versus vehicle, FIG. 1)	neurological deficits (Basso Mouse Score) compared to controls ([1]; Balb/C mice, treated once daily, day 2 and 3 and from day 9 until the end of the study, FIG. 1)	neurological outcome (BMS), difference between routes of administration ([1]; systemically (i.p.) versus gel placed at the site of injury, FIG. 2)	BMS subscore paw position of hindlimbs, recovery ([1]; versus vehicle treated mice, where almost completely absent, FIG. 3)	increase in BMS subscore paw position, statistical significance ([1]; versus vehicle, FIG. 3)	number of BDA-labelled axons (CST nerve fibres) compared to controls [2]	production of mRNA encoding BDNF [3]	production of mRNA encoding TrkB [4]	expression of BDNF ([5]; 10^−6M)	expression of TrkB ([6]; 10^−6M)	TrkB immunoreactivity (signal intensity) in spinal cord [7]	Nissl positive cells (viable neurons) at the site of spinal cord injury [8]	effect of AT2R-antagonist on BDNF mRNA increase induced by the compound of Example 1(i) ([3]; combination with Example 1(i))	effect of AT2R-antagonist on TrkB mRNA increase induced by the compound of Example 1(i) ([4]; combination with Example 1(i))	effect of co-treatment with AT2R-antagonist on BDNF expression induced by the compound of Example 1(i) ([5]; co-treatment with Example 1(i))	effect of co-treatment with AT2R-antagonist on TrkB expression induced by the compound of Example 1(i) ([6]; co-treatment with Example 1(i))
CCCCOC(=O)NS(=O)(=O)c1sc(CC(C)C)cc1-c1ccc(Cn2ccnc2)cc1 [Example 1(i), N-Butyloxycarbonyl-3-(4-imidazol-1-ylmethylphenyl)-5-iso-butylthiophene-2-sulfonamide]	approximately 1.5 points	significantly reduced neurological deficits	no statistically significant difference	continuous recovery	statistically significant from day 7 until the end of the observational period	significantly increased	significantly increased	significantly increased	induced expression	induced expression	strongly increased	significant increase				
Cc1cc(Cn2cnc3c2C[C@@H](C(=O)O)N(C(=O)C(c2ccccc2)c2ccccc2)C3)ccc1N(C)C [PD123319, reference compound]													completely blocked	completely blocked	abrogated	abrogated
